Experimental findings from patent publication EP0273990B1, “Novel organic peroxides and their use in the preparation of epoxide groups containing (co)polymers” (AKZO N.V., priority 1986, dated 1988) are described below.

For this series the following is noted: half-life period of decomposition 10 hours; 0,1 M solution in chlorobenzene.

`C=CC(C)(C)OOC(C)(C)c1ccccc1` [peroxide 3, α-(2-methyl-3-buten-2-ylperoxy)isopropylbenzene]: the “Temperature (°C) for t½ of 10 hours” value was 106 °C.
